Data from patent US9340577B2, “HLA binding motifs and peptides and their uses” (priority 1992, dated 2016).
No end group written: not given here.

Tests used:
Format in all cases: binding
A2.1 HLA molecules = A2.1 HLA molecules (Homo sapiens, UniProt P04439, D140Y/D185E/D98H/E176V/E277Q/G131W/G231S/I119V/I121R/I166T/I218V/L300P/L318F/N151K/N90K/P208A/P217A/Q86G/Q94H/R138H/R169H/T345S); parameters: A*0201 / A2.1 Binding / A2 Bind. / A2 / A2.1 (binding capacity): scale not given here
HLA-A1 (A*0101) = HLA-A1 (A*0101) (Homo sapiens, UniProt P04439, A114D/A174V/A182V/D101N/D185E/E176A/E190D/L180R/Q94H/R68K/S129P/T187R/V100A/V91M/W191G); experiment: biochemical
A*3301 = A*3301 (Homo sapiens, UniProt P04439, A270S/D185E/E176V/E277Q/E87N/F33T/G231S/H175R/I121M/I218V/I322F/K168Q/K210R/L300P/L318F/M331R/P217A/Q86R/Q94H/R138Q/T323A/T345S/T97I/V358M/Y195H); experiment: biochemical
A*6801 = A*6801 (Homo sapiens, UniProt P04439, A269V/D185E/E176V/E277Q/E87N/F33Y/G231S/I121M/I166T/I218V/L180W/L300P/L318F/N151K/P208A/P217A/Q86R/R169H/T345S); experiment: biochemical
HLA-A3.2 (A*0301) = HLA-A3.2 (A*0301) (Homo sapiens, UniProt P04439); experiment: biochemical
A31 (A*3101) = A31 (A*3101) (Homo sapiens, UniProt P04439, A270S/D185E/E176V/E277Q/F33T/G231S/G80R/H175R/I121M/I218V/I322F/K168Q/L300P/L318F/M331R/P217A/Q94H/R138Q/T323A/T345S/T97I/V358M); experiment: biochemical
A*0206 = A*0206 (Homo sapiens, UniProt P04439, D140Y/D185E/D98H/E176V/E277Q/F33Y/G131W/G231S/I119V/I121R/I166T/I218V/L300P/L318F/N151K/N90K/P208A/P217A/Q86G/Q94H/R138H/R169H/T345S); experiment: biochemical
HLA-A*0201 (HLA-A2.1) = HLA-A*0201 (HLA-A2.1) (Homo sapiens, UniProt P04439, D140Y/D185E/D98H/E176V/E277Q/G131W/G231S/I119V/I121R/I166T/I218V/L300P/L318F/N151K/N90K/P208A/P217A/Q86G/Q94H/R138H/R169H/T345S); experiment: biochemical
A*6802 = A*6802 (Homo sapiens, UniProt P04439, A269V/D140Y/D185E/E176V/E277Q/E87N/F33Y/G231S/I121R/I166T/I218V/L180W/L300P/L318F/N151K/P208A/P217A/Q86R/R138H/R169H/S129P/T345S/V36M); experiment: biochemical
A*0202 = A*0202 (Homo sapiens, UniProt P04439, D140Y/D185E/D98H/E176V/E277Q/G131W/G231S/I119L/I121R/I166T/I218V/L180W/L300P/L318F/N151K/N90K/P208A/P217A/Q67R/Q86G/Q94H/R138H/R169H/T345S); experiment: biochemical
A*0203 = A*0203 (Homo sapiens, UniProt P04439, A173T/D140Y/D185E/D98H/E277Q/G131W/G231S/I119V/I121R/I166T/I218V/L180W/L300P/L318F/N151K/N90K/P208A/P217A/Q86G/Q94H/R138H/R169H/T345S); experiment: biochemical
HLA-A11 (A*1101) = HLA-A11 (A*1101) (Homo sapiens, UniProt P04439, A114D/D185E/E176A/F33Y/L180Q/S129P/T187R); experiment: biochemical

Sequence | IC50 (A*0206) [nM] | IC50 (HLA-A*0201 (HLA-A2.1)) [nM] | IC50 (A*6802) [nM] | IC50 (A*0202) [nM] | IC50 (A*0203) [nM] | other results
GLVGLRIVFA |  |  |  |  |  | A2 Bind. (A2.1 HLA molecules): 0.0195; A1 (HLA-A1 (A*0101)): 0.0195
LLIAARIVEL |  |  |  |  |  | A2 Bind. (A2.1 HLA molecules): 0.1550; A1 (HLA-A1 (A*0101)): 0.1550
AVLSIVNRV |  |  |  |  |  | A2 Bind. (A2.1 HLA molecules): 0.0132; A1 (HLA-A1 (A*0101)): 0.0132
MLQLTVWGI |  |  |  |  |  | A2 Bind. (A2.1 HLA molecules): 0.2450; A1 (HLA-A1 (A*0101)): 0.2450
IAATYNFAV |  |  |  |  |  | A2 Bind. (A2.1 HLA molecules): 0.0540; A1 (HLA-A1 (A*0101)): 0.0540
FIMIVGGLV |  |  |  |  |  | A2 Bind. (A2.1 HLA molecules): 0.0131; A1 (HLA-A1 (A*0101)): 0.0131
IMIVGGLVGL |  |  |  |  |  | A2 Bind. (A2.1 HLA molecules): 0.0252; A1 (HLA-A1 (A*0101)): 0.0252
CVSHRGLYY [Peptide 88.0401] |  |  |  |  |  | IC50 (A*3301): > 20000 nM; IC50 (A*6801): > 20000 nM; IC50 (HLA-A3.2 (A*0301)): 27 nM; IC50 (HLA-A1 (A*0101)): 108 nM; IC50 (A31 (A*3101)): > 20000 nM
YVAWKYIYY [Peptide 88.0433] |  |  |  |  |  | IC50 (HLA-A1 (A*0101)): 310 nM
WALTVVWLL |  |  |  |  |  | A1 (HLA-A1 (A*0101)): 0.0415
IQGAVISFV [Peptide 1578.13] | 35 | 45 | 4880 | 12 | 13 | 
RFEDPTRRPY [Peptide 78.0005] |  |  |  |  |  | IC50 (HLA-A1 (A*0101)): 19200 nM
SLYTHLQCL [Peptide 1578.20] | 540 | 224 | 8470 | 2.6 | 11 | 
VLAEAMSHV [Peptide 1516.08] | 89 | 29 | 304 | 1.9 | 5.5 | 
VLAEAMGQV [Peptide 1539.05] | 75 | 55 | 168 | 1.7 | 3.2 | 
EVLLLVHNV [Peptide 9013.0021] | 107 | 3030 | 3 | 6240 | 6600 | 
QQIEFVSFL [Peptide 1578.16] | 49 | 19 | 44 | 3.3 | 14 | 
TLELFIPNITV [Peptide 9013.0299] | 2330 | 161 | 1040 | 502 | 15800 | 
RLENAILFTA [Peptide 1578.51] | 4560 | 2150 | > 20000 | 43 | 1770 | 
FLSHVKIPV [Peptide 1578.55] | 91 | 41 | 60 | 4 | 9.8 | 
TLTTITVYA [Peptide 9013.0069] | 666 | 14 | 5 | 0.75 | 2.6 | 
ALAFTCEPET [Peptide 9013.0156] | 7960 | > 20000 | > 20000 | 206 | 279 | 
VADKALKFY [Peptide E6-69] |  |  |  |  |  | binding to HLA-A3.2 (in words) (HLA-A3.2 (A*0301); HPV 16 E6/E7 9-mers): bound; binding class for HLA-A11.2 (HLA-A11 (A*1101)): weak affinity; binding to HLA-A11.2 (in words) (HLA-A11 (A*1101)): bound; binding to HLA-A1 (in words) (HLA-A1 (A*0101)): bound
RTLQQLLFV [Peptide 1525.15] | 30 | 120 | > 20000 | 1280 | 190 | 
RILQHLLFA [Peptide 1525.24] | 11 | 160 | > 20000 | 220 | 51 | 

Sequence | IC50 (A*0206) [nM] | IC50 (HLA-A*0201 (HLA-A2.1)) [nM] | IC50 (A*6802) [nM] | IC50 (A*0202) [nM] | IC50 (A*0203) [nM] | other results
IVNTTYLWWV [Peptide 9013.0196] | 91 | 5940 | 71 | 1440 | 389 | 
GLSAGATVGV [Peptide 9013.0250] | 1100 | 97 | 1150 | 2.9 | 2.8 | 
QLSNGNRTL [Peptide 9013.0050] | > 20000 | 16100 | 8650 | 39 | 43 | 
GTQQATPGPV [Peptide 9013.0142] | > 20000 | > 20000 | > 20000 | > 20000 | 36 | 
ALYWFRTAM [Peptide 86.0195] | 13900 | 1480 | > 20000 | 17 | 214 | 
SLQDSQFEL [Peptide 1578.35] | 160 | 141 | 8850 | 1.4 | 165 | 
VLAEAMSHT [Peptide 1539.06] | 975 | 243 | > 20000 | 16 | 7.5 | 
RTTVKTITVSV [Peptide 9013.0318] | 137 | 1590 | 1.4 | 866 | 457 | 
GLTVGIMIGVL [Peptide 9013.0343] | 11500 | 5010 | 2640 | 914 | 290 | 
KLMSQLLNI [Peptide 1578.29] | 56 | 35 | > 20000 | 1.6 | 12 | 
RMLQQLLFI [Peptide 1525.12] | 16 | 15 | 18700 | 128 | 12 | 
LLLSNDNRTL [Peptide 9013.0205] | > 20000 | 8190 | > 20000 | 303 | 4180 | 
QQIEFITFL [Peptide 1578.10] | 45 | 42 | 93 | 5.9 | 20 | 
NLAEGKEVL [Peptide 9013.0016] | > 20000 | 3840 | > 20000 | 14 | 293 | 
FQGSVISFV [Peptide 1578.38] | 13 | 15 | 564 | 1.8 | 1.8 | 
LIQPFILYA [Peptide 1578.07] | 71 | 124 | 8630 | 70 | 46 | 
VLAEAMSRV [Peptide 1516.10] | 75 | 40 | 487 | 2.6 | 3.7 | 
RVLQQLLFV [Peptide 1545.05] | 6.4 | 10 | > 20000 | 1010 | 29 | 
PQYSWRINGV [Peptide 9013.0235] | > 20000 | > 20000 | > 20000 | 1330 | 25 | 
RILQQLLFV [Peptide 1525.09] | 18 | 28 | 17900 | 489 | 60 | 
YSDIRELRHY [Peptide 86.0055] |  |  |  |  |  | IC50 (HLA-A1 (A*0101)): 9.9 nM
GMIDDVTPI [Peptide 1578.24] | 24 | 25 | > 20000 | 0.2 | 0.63 | 
IIQNDTGFYV [Peptide 9013.0146] | 201 | 155 | 2600 | 25 | 548 | 
FLSALKLFL [Peptide 1578.17] | 45 | 17 | 2150 | 2.8 | 11 | 
